# Tests used:
# [1] = tested on: Acinetobacter baumannii (A. baumannii) 2208 ATCC19606; experiment: CFU measuring assay / MBC calculation; assay type: cell-based; settings: 90 min at 37° C., linear regression, mean ± s.d.
# Procedure: (§1) For the CFU measuring assay, 50 μL of different concentrations of Se NPs, Se NP-ε-PL or pure ε-PL in PBS solution was added into each well of 96-well microplates, then 50 μL MHB with 2.5×10^6 cells/mL bacteria were added into each well. After incubating the microplate at 37° C. for 90 min, the bacterial solutions were diluted 10^−1, 10^−2, 10^−3 and 10^−4 times, then 10 μL of each dilution was transferred onto agar plates with MHB. The agar plates were incubated overnight, before the bacterial colony forming units were observed and measured.
# (§2) Concentration-killing curves were plotted with CFUs/mL as a function of antibacterial agent concentration, and linear regression analysis was used to determine the lowest concentration (MBC) at which the CFU/mL becomes zero.
# [2] = tested on: Enterococcus faecalis (E. faecalis) ATCC 29212; experiment: CFU measuring assay / MBC calculation; assay type: cell-based; settings: 90 min at 37° C., linear regression, mean ± s.d.
# Procedure: as §1, §2
# [3] = tested on: Escherichia coli (E. coli) ATCC 25922; experiment: CFU measuring assay / MBC calculation; assay type: cell-based; settings: 90 min at 37° C., linear regression, mean ± s.d.
# Procedure: as §1, §2
# [4] = tested on: Klebsiella pneumoniae (K. pneumoniae) ATCC 13883; experiment: CFU measuring assay / MBC calculation; assay type: cell-based; settings: 90 min at 37° C., linear regression, mean ± s.d.
# Procedure: as §1, §2
# [5] = tested on: Pseudomonas aeruginosa (P. aeruginosa) strain PAO1-LAC ATCC 47085; experiment: CFU measuring assay / MBC calculation; assay type: cell-based; settings: 90 min at 37° C., linear regression, mean ± s.d.
# Procedure: as §1, §2
# [6] = tested on: methicillin-resistant Staphylococcus aureus (MRSA) ATCC 43300; experiment: CFU measuring assay / MBC calculation; assay type: cell-based; settings: 90 min at 37° C., linear regression, mean ± s.d.
# Procedure: as §1, §2
# [7] = tested on: methicillin-sensitive Staphylococcus aureus (S. aureus) ATCC 29213; experiment: CFU measuring assay / MBC calculation; assay type: cell-based; settings: 90 min at 37° C., linear regression, mean ± s.d.
# Procedure: as §1, §2
# [8] = tested on: multidrug-resistant K. pneumoniae (MDR); experiment: CFU measuring assay / MBC calculation; assay type: cell-based, Klebsiella pneumoniae; settings: 90 min at 37° C., linear regression, mean ± s.d.
# Procedure: as §1, §2
# [9] = tested on: human dermal fibroblast cells (HDF); experiment: Lactate Dehydrogenase (LDH) release assay; assay type: cell-based; settings: concentration of up to 50 μg/mL, 6 h
# Procedure: LDH is released from cells into the medium when cell lysis occurs. The amount of LDH released to the medium was measured using the Cyto Tox 96® nonradioactive assay (Promega, Madison, Wis., USA) following the manufacturer's instructions. The HDF cells were cultured in a 96-well microplate for 24 h, before the old medium was replaced with DMEM with including either Se NPs, Se NP-ε-PL or pure ε-PL. Pure DMEM was used as negative control. The microplate was put back into the incubator for 6 h. For the maximum LDH release control, HDF cells were lysed using 1× lysis solution for 45 minutes before adding Cyto Tox 96 reagent. Cyto Tox 96 reagent was then added to the wells and the microplate was incubated for a further 30 minutes. The reaction was then stopped by adding stop solution. A microplate reader (M200 PRO, Tecan) was utilized to test absorbance at 490 nm. The cytotoxicity (Y) was calculated using the following formula: […]
# OD3 represents the mean absorbance of experimental groups, and OD4 represents the mean absorbance of the maximum LDH release control group. All absorbance values are after subtraction of the culture medium background values.
# E. coli ATCC 25922 = experiment: Membrane potential change test (BacLight, DiOC2(3)); assay type: cell-based, Escherichia coli; settings: 6.25 or 12.5 μg/ml (CCCP 5 μM)
# Procedure: Membrane potential change was measured using a BacLight Bacterial Membrane Potential Kit (Invitrogen). The bacterial strain methicillin-sensitive S. aureus (MSSA) ATCC 29213, E. faecalis ATCC 29212, E. coli ATCC 25922 were cultured in MHB at 37° C. 50 μL of different concentrations of Se NPs, Se NP-ε-PL or pure ε-PL in PBS solution was added into each well of 96-well microplates. 50 μL MHB with 2.5×10^6 cells/mL bacteria was then added into each well. 50 μL MHB with 2.5×10^6 cells/mL bacteria was added to 50 μL PBS to act as untreated control. Carbonyl cyanide 3-chlorophenylhydrazone (CCCP) was added to untreated control at a final concentration of 5 μM to act as fully depolarized control. 3,3′-Diethyloxacarbocyanine Iodide (DiOC2(3)) was added to all wells at a final concentration of […]. […] The untreated (polarized) and CCCP-treated (fully depolarized) controls were used to determine the percentage of depolarized cells. Two independent experiments were done for this test, and two technical replicates were adopted for each independent experiment.
# E. faecalis ATCC 29212 = experiment: Helium ion microscopy (HIM) of treated bacteria; assay type: cell-based, Enterococcus faecalis; settings: 90 min incubation
# Procedure: (§3) The morphologies of bacterial strains methicillin-sensitive S. aureus (MSSA) ATCC 29213, E. faecalis ATCC 29212, E. coli ATCC 25922, A. baumannii 2208 ATCC19606 and K. pneumoniae ATCC 13883 after treatment with Se NPs, Se NP-ε-PL or pure ε-PL were observed using Helium Ion Microscopy (HIM, Zeiss, Germany). The samples were prepared in the following steps. First, 100 μL of 125 μg/mL Se NPs, Se NP-ε-PL or pure ε-PL in PBS solution was added to each well of 96-well microplates, 100 μL pure PBS was used as untreated control. Afterwards, 100 μL MHB with 1.25×10^7/mL bacteria was added to each well. After 90 min incubation, 10 μL of both treated and untreated bacteria was dropped on clean silicon wafers, and they were then dried at 37° C. for 20 min. The dried samples were transferred to a 12-well plate, 2.5% glutaraldehyde was added to each well to fix the bacteria cells for 1 h, then gradient ethanol solution (30%, 50%, 60%, 70%, 80%, 90%, 95% and 100%) was used for dehydration. The prepared samples were dried in the fume hood overnight before use.
# [10] = tested on: Gram-negative cells (E. coli, A. baumannii and K. pneumoniae); experiment: Helium ion microscopy (HIM) of treated bacteria; assay type: cell-based; settings: 90 min incubation
# Procedure: as §3
# Gram-negative bacteria = experiment: Colony forming unit assay (bactericidal effect); assay type: cell-based
# Procedure: as §1
substance,measurement,setting,value
ε-poly-L-lysine [ε-PL],MBC,[1],50.0 ± 0.2 µg/mL
same,MBC,[2],134 ± 10 µg/mL
same,MBC,[3],24.3 ± 1.2 µg/mL
same,MBC,[4],12.9 ± 0.4 µg/mL
same,MBC,[5],25.0 ± 0.1 µg/mL
same,MBC,[6],149 ± 37 µg/mL
same,MBC,[7],50.6 ± 3.5 µg/mL
same,MBC,[8],24.7 ± 0.5 µg/mL
same,LDH released from HDF cells compared with untreated control,[9],no significant difference to the untreated control
same,depolarisation of cell membrane,E. coli ATCC 25922,depolarized cell membranes
same,cell morphology after treatment (HIM),E. faecalis ATCC 29212,some were dead and distorted
same,cell morphology after treatment (HIM),[10],"membranes of E. coli, A. baumannii and K. pneumoniae cells were disrupted"
same,bactericidal effect (CFU),Gram-negative bacteria,high bactericidal efficacy

# From patent US20220339187A1, “ANTIMICROBIAL PEPTIDE-SELENIUM NANOPARTICLES” (The University of Melbourne, priority 2019, published 2022)
